Assay results: patent publication US20080145465A1, “Sesquiterpene lactone extract from artemisia leucodes for reducing inflammation and down-regulating pro-inflammatory gene expression” (priority 2006, published 2008)
Where “and” joins values, the source holds several entries; their conditions need not be identical. Equal values may be shown once.

Columns and labels:
[1] = tested on: carrageenan-induced rat paw edema; assay: Carrageenan-induced rat paw edema; format: in vivo, Wistar rats; conditions: 200 mg/kg oral gavage, n = 5
Procedure: Groups of five adult male and female Wistar rats with body weights from 136 to 170 g were used for this study. Rats were housed five animals per cage in a room kept at 24-26° C. and fed ad libitum. Before the experiment began, rat paw sizes were recorded by measuring paw volume three times on each animal using a plethysmometer (Ugo Basile, Comerio VA, Italy). The values were averaged to give a baseline paw size value. To start the experiment, animals were given a subcutaneous injection of 1% carrageenan (100 μl; Sigma, St. Louis, Mo.) in the area of the back paw to induce an acute inflammatory reaction (paw edema). One hour after carrageenan injection, rats were orally gavaged with AL-1, aspirin, or vehicle control (5% ethanol). Paw size was measured at three hours and five hours after injection. The increase in paw edema at each time point was determined by comparison with paw volume measured pre-injection. Inhibition of edema was calculated by comparison with vehicle control at the same time point.

[2] = tested on: cotton pellet infiltrate and granuloma in rats; assay: Cotton granuloma test; format: in vivo; conditions: 200 mg/kg oral
Procedure: Free access to standard rat chow and water was provided throughout the test. Three sterile cotton pellets (10 mg) were implanted hypodermically into the groin and abdominal area of rats under Nembutal (Sigma, St. Louis, Mo.) narcosis (40 mg/kg intraperitoneally). AL-1, aspirin (Sigma, St. Louis, Mo.), and vehicle control (5% ethanol) were administered by oral gavage one day before implantation, the day of implantation (1 hour before operation), and subsequently for six days after the surgery, once per day. On the seventh day after surgery, rats were euthanized by means of a large dose of Nembutal (70 mg/kg). Cotton pellets were removed and fresh weights were recorded. The cotton pellets were then were placed into an oven (60° C.) for 24 hours and weighed again.

[3] = tested on: nitric oxide (NO) production from RAW macrophages; assay: Griess assay for NO production by LPS-stimulated RAW macrophages; format: cell-based, murine; conditions: at 10 μM; positive control
COX-2 = target: T1, COX-2 (Ovis aries, UniProt P79208); assay: Colorimetric COX inhibitor screening assay, COX-2; format: biochemical, ovine
T1 construct: purchased Cayman Chemical Company
T1 sequence (P79208 17-603): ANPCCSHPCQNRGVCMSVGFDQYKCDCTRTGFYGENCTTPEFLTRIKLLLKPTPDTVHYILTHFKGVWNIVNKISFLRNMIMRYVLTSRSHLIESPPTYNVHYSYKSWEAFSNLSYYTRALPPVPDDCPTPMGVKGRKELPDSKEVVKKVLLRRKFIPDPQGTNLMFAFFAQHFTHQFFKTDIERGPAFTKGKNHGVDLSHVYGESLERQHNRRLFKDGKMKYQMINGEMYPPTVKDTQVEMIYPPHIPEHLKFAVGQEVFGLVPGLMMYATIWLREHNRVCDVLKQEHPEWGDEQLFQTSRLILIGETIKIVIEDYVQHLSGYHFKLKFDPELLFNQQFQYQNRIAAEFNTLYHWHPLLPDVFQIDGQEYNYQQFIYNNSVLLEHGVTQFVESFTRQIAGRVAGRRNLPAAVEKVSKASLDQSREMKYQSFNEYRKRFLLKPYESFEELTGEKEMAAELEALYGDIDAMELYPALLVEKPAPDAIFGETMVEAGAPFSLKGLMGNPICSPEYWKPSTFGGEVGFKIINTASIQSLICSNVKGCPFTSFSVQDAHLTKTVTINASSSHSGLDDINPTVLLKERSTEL
Procedure: An ovine COX inhibitor screening assay (Cayman Chemical Company, Ann Arbor, Mich.) was used to measure inhibition of purified COX-1 and COX-2. This assay measures the peroxidase component of cyclooxygenases colorimetrically by monitoring the appearance of oxidized N,N,N′,N′-tetramethyl-p-phenylenediamine (TMPD) at 590 nm. Tablets of Vioxx (rofecoxib; Merck & Co., Inc., Whitehouse Station, N.J.) were ground and dissolved in methanol (1 mg/mL) to use as a positive control. AL-1, leukomisin, and austricin were also dissolved in methanol at 1 mg/mL. The assay was performed following manufacturer instructions. Vioxx, vehicle (100% initial activity), or treatments were added to a 96-well plate along with 180 μL assay mixture provided by the manufacturer containing 150 μL assay buffer, 10 μL heme, and 10 μL enzyme (COX-1 or COX-2). A background correction row received no enzyme and 10 μL additional assay buffer. After 5 min incubation at room temp, 20 μL of a colorimetric substrate solution containing TMPD and 20 μL arachadonic acid diluted in assay buffer were added to the plate. The plate was incubated for 5 min and the absorbance was read at 590 nm using a microplate reader (Molecular Devices, Sunnyvale, Calif.). To calculate percent inhibition, average absorbance was calculated for each sample (n=3). The background blank well absorbance was subtracted from each sample.
[(100% Initial activity-Blank)−(Treatment-Blank)/(100% Initial activity-Blank)]*100

Compound | inhibition of paw edema vs vehicle control ([1]; 3 h after carrageenan) | inhibition of paw edema vs vehicle control ([1]; 5 h after carrageenan) | reduction of granuloma [2] [%] | reduction of infiltrate [2] [%] | granuloma (dry weight of pellet) ([2]; once per day, vehicle control 38 ± 7 mg) [mg] | infiltrate (wet weight of pellet) ([2]; once per day, vehicle control 139 ± 10 mg) [mg] | NO production, % of control [3] | IC50 (COX-2) [µM]
CC(=O)Oc1ccccc1C(=O)O [aspirin] | 53% and 53 ± 1 % | 56% and 56 ± 1 % | 44 | 34 | 21 ± 3 | 92 ± 12 | 69 % of control | 
CS(=O)(=O)c1ccc(C2=C(c3ccccc3)C(=O)OC2)cc1 [Vioxx, rofecoxib] |  |  |  |  |  |  |  | 40
